Measured values: ChEMBL document CHEMBL3885881, “DrugMatrix”

Species: Rattus norvegicus
Test: DrugMatrix - Regimen: Daily Repeat
Assay type: toxicity, organism-based, Sprague-Dawley
Design: regimen Daily Repeat, gender Male, age 6-8 weeks
Conditions: in vivo, iv, vehicle 100 % SALINE; for ABSOLUTE BASOPHIL / ABSOLUTE EOSINOPHIL / ABSOLUTE LYMPHOCYTE / ABSOLUTE MONOCYTE / ABSOLUTE SEGMENTED NEUTROPHIL / BASOPHIL / EOSINOPHIL / ERYTHROCYTE COUNT / HEMATOCRIT / HEMOGLOBIN / LEUKOCYTE COUNT / LYMPHOCYTE / MEAN CORPUSCULAR HEMOGLOBIN / MEAN CORPUSCULAR HEMOGLOBIN CONCENTRATION / MEAN CORPUSCULAR VOLUME / MONOCYTE / NEUTROPHIL / NUCLEATED RED BLOOD CELLS / PLATELET COUNT: tissue Blood; for ALANINE AMINOTRANSFERASE / ALBUMIN / ALKALINE PHOSPHATASE / ASPARTATE AMINOTRANSFERASE / BLOOD UREA NITROGEN / CARBON DIOXIDE / CHLORIDE / CHOLESTEROL / CREATINE PHOSPHOKINASE / CREATININE / GLUCOSE / LACTATE DEHYDROGENASE / LIPASE / PHOSPHORUS / POTASSIUM / SODIUM / TOTAL BILIRUBIN / TOTAL PROTEIN / URIC ACID: tissue Plasma
[1] = 29 mg/kg, 120 h, dose level Low, time 5 day
[2] = 48 mg/kg, 72 h, dose level High, time 3 day
[3] = 48 mg/kg, 120 h, dose level High, time 5 day

C[n+]1ccccc1/C=N/O.[Cl-] [PRALIDOXIME CHLORIDE]
ABSOLUTE BASOPHIL [1]: 0 CELLS/uL
ABSOLUTE EOSINOPHIL [1]: 0 CELLS/uL
ABSOLUTE LYMPHOCYTE [1]: 11211.67 CELLS/uL
ABSOLUTE MONOCYTE [1]: 254 CELLS/uL
ABSOLUTE SEGMENTED NEUTROPHIL [1]: 1034.33 CELLS/uL
BASOPHIL [1]: 0%
EOSINOPHIL [1]: 0%
ERYTHROCYTE COUNT [1]: 5.41 x10E6/uL
HEMATOCRIT [1]: 34.03%
HEMOGLOBIN [1]: 12.57 G/DL
LEUKOCYTE COUNT [1]: 12.5 x10E3/uL
LYMPHOCYTE [1]: 89.67%
MEAN CORPUSCULAR HEMOGLOBIN [1]: 23.3 pg
MEAN CORPUSCULAR HEMOGLOBIN CONCENTRATION [1]: 36.97 G/DL
MEAN CORPUSCULAR VOLUME [1]: 63 fL
MONOCYTE [1]: 2%
NEUTROPHIL [1]: 8.33%
NUCLEATED RED BLOOD CELLS [1]: 0 /100WBC
PLATELET COUNT [1]: 1164.33 x10E3/uL
ALANINE AMINOTRANSFERASE [1]: 69.67 u/L
ALBUMIN [1]: 3.7 G/DL
ALKALINE PHOSPHATASE [1]: 366.67 u/L
ASPARTATE AMINOTRANSFERASE [1]: 95.33 u/L
BLOOD UREA NITROGEN [1]: 17.67 mg/dL
CARBON DIOXIDE [1]: 22.67 mmol/L
CHLORIDE [1]: 105 MEQ/L
CHOLESTEROL [1]: 58.67 mg/dL
CREATINE PHOSPHOKINASE [1]: 283.67 u/L
CREATININE [1]: 0.2 mg/dL
GLUCOSE [1]: 168.67 mg/dL
LACTATE DEHYDROGENASE [1]: 87.33 u/L
LIPASE [1]: 9 u/L
PHOSPHORUS [1]: 12.73 mg/dL
POTASSIUM [1]: 7.24 MEQ/L
SODIUM [1]: 145.2 MEQ/L
TOTAL BILIRUBIN [1]: 0.1 mg/dL
TOTAL PROTEIN [1]: 5.83 G/DL
URIC ACID [1]: 1.97 mg/dL
ABSOLUTE BASOPHIL [2]: 0 CELLS/uL
ABSOLUTE EOSINOPHIL [2]: 0 CELLS/uL
ABSOLUTE LYMPHOCYTE [2]: 13021.33 CELLS/uL
ABSOLUTE MONOCYTE [2]: 38.67 CELLS/uL
ABSOLUTE SEGMENTED NEUTROPHIL [2]: 1206.67 CELLS/uL
BASOPHIL [2]: 0%
EOSINOPHIL [2]: 0%
ERYTHROCYTE COUNT [2]: 5.54 x10E6/uL
HEMATOCRIT [2]: 36.53%
HEMOGLOBIN [2]: 13.53 G/DL
LEUKOCYTE COUNT [2]: 14.27 x10E3/uL
LYMPHOCYTE [2]: 91.33%
MEAN CORPUSCULAR HEMOGLOBIN [2]: 24.57 pg
MEAN CORPUSCULAR HEMOGLOBIN CONCENTRATION [2]: 37.03 G/DL
MEAN CORPUSCULAR VOLUME [2]: 66.2 fL
MONOCYTE [2]: 0.33%
NEUTROPHIL [2]: 8.33%
NUCLEATED RED BLOOD CELLS [2]: 0 /100WBC
PLATELET COUNT [2]: 1281.33 x10E3/uL
ALANINE AMINOTRANSFERASE [2]: 51.67 u/L
ALBUMIN [2]: 4.43 G/DL
ALKALINE PHOSPHATASE [2]: 377.33 u/L
ASPARTATE AMINOTRANSFERASE [2]: 70.67 u/L
BLOOD UREA NITROGEN [2]: 14.67 mg/dL
CARBON DIOXIDE [2]: 19.33 mmol/L
CHLORIDE [2]: 101.33 MEQ/L
CHOLESTEROL [2]: 73.67 mg/dL
CREATINE PHOSPHOKINASE [2]: 198.33 u/L
CREATININE [2]: 0.19 mg/dL
GLUCOSE [2]: 169.33 mg/dL
LACTATE DEHYDROGENASE [2]: 89.67 u/L
LIPASE [2]: 10 u/L
PHOSPHORUS [2]: 11.87 mg/dL
POTASSIUM [2]: 6 MEQ/L
SODIUM [2]: 146.3 MEQ/L
TOTAL BILIRUBIN [2]: 0.2 mg/dL
TOTAL PROTEIN [2]: 6.03 G/DL
URIC ACID [2]: 1.37 mg/dL
ABSOLUTE BASOPHIL [3]: 0 CELLS/uL
ABSOLUTE EOSINOPHIL [3]: 56 CELLS/uL
ABSOLUTE LYMPHOCYTE [3]: 13632 CELLS/uL
ABSOLUTE MONOCYTE [3]: 1059.33 CELLS/uL
ABSOLUTE SEGMENTED NEUTROPHIL [3]: 1786 CELLS/uL
BASOPHIL [3]: 0%
EOSINOPHIL [3]: 0.33%
ERYTHROCYTE COUNT [3]: 5.32 x10E6/uL
HEMATOCRIT [3]: 32.57%
HEMOGLOBIN [3]: 12.23 G/DL
LEUKOCYTE COUNT [3]: 16.53 x10E3/uL
LYMPHOCYTE [3]: 82.33%
MEAN CORPUSCULAR HEMOGLOBIN [3]: 23 pg
MEAN CORPUSCULAR HEMOGLOBIN CONCENTRATION [3]: 37.57 G/DL
MEAN CORPUSCULAR VOLUME [3]: 61.17 fL
MONOCYTE [3]: 6.33%
NEUTROPHIL [3]: 11%
NUCLEATED RED BLOOD CELLS [3]: 0 /100WBC
PLATELET COUNT [3]: 992.67 x10E3/uL
ALANINE AMINOTRANSFERASE [3]: 69 u/L
ALBUMIN [3]: 3.57 G/DL
ALKALINE PHOSPHATASE [3]: 386.67 u/L
ASPARTATE AMINOTRANSFERASE [3]: 113.33 u/L
BLOOD UREA NITROGEN [3]: 16 mg/dL
CARBON DIOXIDE [3]: 27 mmol/L
CHLORIDE [3]: 104.33 MEQ/L
CHOLESTEROL [3]: 62 mg/dL
CREATINE PHOSPHOKINASE [3]: 792 u/L
CREATININE [3]: 0.2 mg/dL
GLUCOSE [3]: 194 mg/dL
LACTATE DEHYDROGENASE [3]: 193.33 u/L
LIPASE [3]: 11.33 u/L
PHOSPHORUS [3]: 11.63 mg/dL
POTASSIUM [3]: 6.09 MEQ/L
SODIUM [3]: 144.97 MEQ/L
TOTAL BILIRUBIN [3]: 0.13 mg/dL
TOTAL PROTEIN [3]: 6.03 G/DL
URIC ACID [3]: 1.73 mg/dL
